Test results as given in paper PMC3819915, “Stable Suppression of Lactate Dehydrogenase Activity during Anoxia in the Foot Muscle of Littorina littorea and the Potential Role of Acetylation as a Novel Posttranslational Regulatory Mechanism” (Enzyme Research, 2013).

Experiments:
[1] = tested on: T1, LDH (D-lactate specific LDH, D-LDH) from foot muscle, aerobic control; test: NADH absorbance at […] nm, microplate; type: biochemical, Littorina littorea; settings: 25°C, control enzyme
T1 construct: native enzyme from foot muscle of aerobic control snails, partially purified on blue agarose; more acetylated than the 24 h anoxic form

[2] = tested on: T1, LDH (D-lactate specific LDH, D-LDH) from foot muscle, aerobic control; test: NADH absorbance at […] nm, microplate; type: biochemical, Littorina littorea; settings: assay direction not stated for this effector, presumably pyruvate-reducing (pH 6.5, 2.5 mM pyruvate, 0.25 mM NADH); 25°C; control enzyme

SMILES	IC50 [2]	also measured
C[C@@H](O)C(=O)O [D-lactate]		Km ([1]; D-lactate-oxidizing direction, 25 mM KH2PO4 pH 9.5, 3 mM NAD+): 25 ± 2 mM
CC(=O)C(=O)O [pyruvate]		Km ([1]; 25 mM KH2PO4 pH 6.5, 0.25 mM NADH): 0.29 ± 0.01 mM
Nc1ncnc2c1ncn2[C@@H]1O[C@H](COP(=O)(O)OP(=O)(O)O)[C@@H](O)[C@H]1O [ADP]	23 ± 2 mM	
Nc1ncnc2c1ncn2[C@@H]1O[C@H](COP(=O)(O)OP(=O)(O)OP(=O)(O)O)[C@@H](O)[C@H]1O [ATP]	13 ± 1 mM	
